Laboratory results taken from US11530132B2, “Composition comprising porous silica particles carrying a cell fate modulating factor” (LEMONEX INC., priority 2017, dated 2022).

Tests used:
[1] = test system: nerve cells or fibroblasts; experiment: Transfection rate of factors carried in DDV; assay type: cell-based; details: factor carried in DDV
[2] = test system: nerve cells or fibroblasts; experiment: Forward differentiation rate with factors carried in DDV; assay type: cell-based; details: factor carried in DDV
Excerpt: (§1) This process was repeated 3 times.
as §1

mES cells = experiment: Neural induction of mES cells, quantitative image analysis (Tuj1-positive cells, axon length); assay type: cell-based, mouse; details: after neural induction; FIG. 32
Experimental: Neural induction of mES cells was conducted by adding RA or RA/AMSN19 complex. In particular, 10^−6M RA or 25 μg of RA/AMSN19 (corresponding to 3×10^−6M including RA) was used for treatment of mES cells in a complete mES medium for 2 days. A non-induction group was cultured as a negative control group. After 2 days, the medium was replaced with a new nerve cell culture medium, N2B27. The medium was replaced on alternate days.
For quantitative analysis, 5 representative fluorescent images were obtained from different immunostain samples, respectively. The images were analyzed by an ImageJ program. For Tuj1-positive cell analysis, the number of florescent cells expressing Tuj1 more than a critical value was measured from each image, followed by calculating a ratio of the measured number to a total number of nuclei. For measurement of a length of axon, axons contained in 50 cells in each sample were analyzed by a line measurement device. In consideration of 100 representative axons, an average value was calculated.

| Compound | Transfection rate [1] | Forward differentiation rate [2] | Cell conversion efficiency (rate of Tuj1 positive cells among entire cells survived) (mES cells) |
| --- | --- | --- | --- |
| Nc1ncn([C@@H]2O[C@H](CO)[C@@H](O)[C@H]2O)c(=O)n1 [5-azacytidine] | 50-95% | 5-30% | – |
| CC1=C(/C=C/C(C)=C/C=C/C(C)=C/C(=O)O)C(C)(C)CCC1 [RA, retinoic acid] | – | – | about 30% |
